Experiments:
Assay type in all cases: physicochemical
[1] = Singlet oxygen quenching rate constant in acetonitrile (phosphorescence lifetime); conditions: air saturated acetonitrile, Pp-MeIX, 1O2 phosphorescence lifetime at 1270 nm; slope of FIG. 9B
Procedure: (§1) Singlet oxygen phosphorescence measurements of the air saturated acetonitrile solutions of the dimethyl ester derivative of PpIX (Pp-MeIX) at the concentration optimal for light absorption and Compound 1 at various concentrations were performed on a modified Fluorolog-3 spectrometer (HORIBA Jobin Yvon) in conjunction with a NIR sensitive photomultiplier tube (H102330A-45, Hamamatsu). A Spectra Physics GCR-150-30 Nd:YAG laser (532 nm, ca. 5 mJ per pulse, 7 ns) was used for pulsed excitation to collect ^1O2 phosphorescence decay traces at 1270 nm which were stored on a digital oscilloscope (TDS 360 from Tektronics).

[2] = Singlet oxygen generation quenching, Stern-Volmer, Pp-MeIX in CDCl3; conditions: air saturated CDCl3, Pp-MeIX, 532 nm excitation, 1O2 phosphorescence at 1270 nm; slope of FIG. 8B
Procedure: as §1, with “CDCl3” for “acetonitrile”, “Tektronics). The Stern-Volmer plots of singlet oxygen phosphorescence were illustrated in FIG. 8B. The Stern-Volmer constant Ksv was calculated from the slope of the plot in FIG. 8B to be 14±1 M^−1, which is a direct measurement of the singlet oxygen suppression efficiency of Compound 1.” for “Tektronics).”

[3] = Keto-Avobenzone triplet state quenching (laser flash photolysis, transient absorption); conditions: deoxygenated acetonitrile, avobenzone 0.25 mM, 266 nm flash photolysis, monitored at 380 nm; slope of FIG. 3
Procedure: The deoxygenated acetonitrile solutions of avobenzone at 0.25 mM and Compound 1 at various concentrations were measured for transient absorption on a homebuilt system (Y. Yagci, S. Jockusch and N. J. Turro, Macromolecules, 2007, 40, 4481-4485; hereby incorporated by reference in its entirety). Keto-Avobenzone was generated by photolysis of enol-Avobenzone at 350 nm. Laser flash photolysis of keto-Avobenzone was conducted at 266 nm with 5 ns pulse width as shown below:
The decay traces of the triplet-absorption of keto-Avobenzone was monitored at 380 nm.

[4] = Singlet oxygen generation quenching, Stern-Volmer, Pp-MeIX in acetonitrile; conditions: air saturated acetonitrile, 532 nm excitation, 1O2 phosphorescence at 1270 nm, slope of FIG. 7
Procedure: as §1, with “Tektronics). The Stern-Volmer plots of singlet oxygen phosphorescence were illustrated in FIG. 7. The Stern-Volmer constant Ksv was calculated from the slope of the plot in FIG. 7 to be 57±2 M^−1, which is a direct measurement of the singlet oxygen suppression efficiency of Compound 1.” for “Tektronics).”

[5] = PpIX singlet excited state quenching (TCSPC fluorescence lifetimes); conditions: acetonitrile, excitation 496 nm, fluorescence at 630 nm; slope of FIG. 5
Procedure: (§2) The acetonitrile solutions of PpIX at a concentration optimal for light absorption and Compound 1 at various concentration were measured on OB920 TR-SPC (Edinburgh Analytical Instruments) by time-correlated single photon counting (TCSPC) using a pulsed LED (496 nm) for excitation (PicoQuant) for the corresponding fluorescence lifetimes. The fluorescence signal was collected at 630 nm.

[6] = Fluorescence quenching of retinol (TCSPC fluorescence lifetimes); conditions: THF, retinol 0.2 mM, excitation 335 nm, fluorescence at 483 nm; slope of FIG. 2
Procedure: as §2, with “THF” for “acetonitrile”, “retinol” for “PpIX”, “0.2 mM” for “a concentration optimal for light absorption”, “(335 nm, 5 MHz)” for “(496 nm)”, “483” for “630”

[7] = PpIX triplet state quenching (transient absorption); conditions: Argon saturated acetonitrile, 532 nm excitation, transient absorbance at 630 nm; slope of FIG. 4
Procedure: The Argon saturated acetonitrile solutions of Protoporphyrin IX (PpIX) at a concentration optimal for light absorption and Compound 1 at various concentrations were measured for transient absorption on a homebuilt system (Y. Yagci, S. Jockusch and N. J. Turro, Macromolecules, 2007, 40, 4481-4485; hereby incorporated by reference in its entirety). Triplet lifetimes were measured at 532 nm (7 ns pulse length) and the transient absorbance was monitored at 630 nm.

CCCCC(CC)COC(=O)/C(C#N)=C1/c2ccccc2-c2cccnc21 (stereo not shown) [Compound 1]
bimolecular quenching rate constant kq of singlet oxygen quenching [1]: 1.5±0.1×10^5 M^−1s^−1
Stern-Volmer constant Ksv (singlet oxygen suppression efficiency) [2]: 14 ± 1 M⁻¹
quenching rate constant kq of keto-Avobenzone triplet states [3]: (3.5±0.2)×10^9 M^−1s^−1
Stern-Volmer constant Ksv (singlet oxygen suppression efficiency) [4]: 57 ± 2 M⁻¹
bimolecular quenching rate constant Kq of quenching of PpIX fluorescence (singlet excited state) [5]: 2.5±0.1×10^9 M^−1s^−1
bimolecular quenching rate constant Kq of quenching of retinol fluorescence [6]: (9.0±0.3)×10^9 M^−1s^−1
quenching rate constant kq of PpIX triplet states [7]: 2.7±0.1×10^7 M^−1s^−1
